Results: ChEMBL document CHEMBL5244269, “Improving metabolic stability and removing aldehyde oxidase liability in a 5-azaquinazoline series of IRAK4 inhibitors” (Bioorg Med Chem, 2020)

Key:
Format in all cases: functional
[1] = test system: SUD4; test: Growth inhibition of human SU-DHL-4 cells at 0.17 uM incubated for 3 days (reference value: 2%); settings: SU-DHL-4, 72 h, time 3 day, read-out: GI
[2] = test system: SUD4; test: Growth inhibition of human SU-DHL-4 cells at 0.017 uM incubated for 3 days (reference value: 2%); settings: SU-DHL-4, 72 h, time 3 day, read-out: GI
[3] = test system: OCI-Ly10; test: Growth inhibition of human OCILY10 cells at 0.033 uM incubated for 3 days (reference value: -2%); settings: OCI-Ly10, 72 h, time 3 day, read-out: GI
[4] = test system: SUD4; test: Growth inhibition of human SU-DHL-4 cells at 0.003 uM incubated for 3 days (reference value: -1%); settings: SU-DHL-4, 72 h, time 3 day, read-out: GI
[5] = test system: OCI-Ly10; test: Growth inhibition of human OCILY10 cells at 1.7 uM incubated for 3 days (Rvb= -3%); settings: OCI-Ly10, 72 h, time 3 day, read-out: GI
[6] = test system: SUD4; test: Growth inhibition of human SU-DHL-4 cells at 0.017 uM incubated for 3 days (reference value: -1%); settings: SU-DHL-4, 72 h, time 3 day, read-out: GI
[7] = test system: OCI-Ly10; test: Growth inhibition of human OCILY10 cells at 0.017 uM incubated for 3 days (Rvb= -3%); settings: OCI-Ly10, 72 h, time 3 day, read-out: GI
[8] = test system: OCI-Ly10; test: Growth inhibition of human OCILY10 cells at 0.33 uM incubated for 3 days (reference value: -2%); settings: OCI-Ly10, 72 h, time 3 day, read-out: GI
[9] = test system: SUD4; test: Growth inhibition of human SU-DHL-4 cells at 0.33 uM incubated for 3 days (reference value: 2%); settings: SU-DHL-4, 72 h, time 3 day, read-out: GI
[10] = test system: SUD4; test: Growth inhibition of human SU-DHL-4 cells at 0.033 uM incubated for 3 days (reference value: 2%); settings: SU-DHL-4, 72 h, time 3 day, read-out: GI
[11] = test system: OCI-Ly10; test: Growth inhibition of human OCILY10 cells at 0.003 uM incubated for 3 days (Rvb= -3%); settings: OCI-Ly10, 72 h, time 3 day, read-out: GI
[12] = test system: SUD4; test: Growth inhibition of human SU-DHL-4 cells at 0.033 uM incubated for 3 days (reference value: -1%); settings: SU-DHL-4, 72 h, time 3 day, read-out: GI
[13] = test system: SUD4; test: Growth inhibition of human SU-DHL-4 cells at 0.33 uM incubated for 3 days (reference value: -1%); settings: SU-DHL-4, 72 h, time 3 day, read-out: GI
[14] = test system: OCI-Ly10; test: Growth inhibition of human OCILY10 cells at 0.17 uM incubated for 3 days (Rvb= -2%); settings: OCI-Ly10, 72 h, time 3 day, read-out: GI
[15] = test system: SUD4; test: Growth inhibition of human SU-DHL-4 cells at 0.003 uM incubated for 3 days (reference value: 2%); settings: SU-DHL-4, 72 h, time 3 day, read-out: GI
[16] = test system: SUD4; test: Growth inhibition of human SU-DHL-4 cells at 0.17 uM incubated for 3 days (reference value: -1%); settings: SU-DHL-4, 72 h, time 3 day, read-out: GI
[17] = test system: OCI-Ly10; test: Growth inhibition of human OCILY10 cells at 0.033 uM incubated for 3 days (Rvb= -3%); settings: OCI-Ly10, 72 h, time 3 day, read-out: GI
[18] = test system: OCI-Ly10; test: Growth inhibition of human OCILY10 cells at 0.003 uM incubated for 3 days (reference value: -2%); settings: OCI-Ly10, 72 h, time 3 day, read-out: GI
[19] = test system: OCI-Ly10; test: Growth inhibition of human OCILY10 cells at 3.3 uM incubated for 3 days (Rvb= -3%); settings: OCI-Ly10, 72 h, time 3 day, read-out: GI
[20] = test system: OCI-Ly10; test: Growth inhibition of human OCILY10 cells at 0.017 uM incubated for 3 days (reference value: -2%); settings: OCI-Ly10, 72 h, time 3 day, read-out: GI

**Q.** For `CC#CC(=O)N1CCC[C@H]1c1nc(-c2ccc(C(=O)Nc3ccccn3)cc2)c2c(N)nccn12` [ACALABRUTINIB], which inhibition of growth at 0.17 µM [1] is on record?
**A.** 2%

**Q.** What about the inhibition of growth at 0.017 µM [2] of the same molecule?
**A.** 2%

**Q.** What about the inhibition of growth at 0.033 µM [3] of the same molecule?
**A.** 92%

**Q.** What about the inhibition of growth at 0.003 µM [4] of the same molecule?
**A.** -1%

**Q.** What about the inhibition of growth at 1.7 µM [5] of the same molecule?
**A.** 108%

**Q.** And the inhibition of growth at 0.017 µM [6]?
**A.** -1%

**Q.** What about the inhibition of growth at 0.017 µM [7] of the same molecule?
**A.** 71%

**Q.** And the inhibition of growth at 0.33 µM [8]?
**A.** 115%

**Q.** And the inhibition of growth at 0.33 µM [9]?
**A.** 2%

**Q.** And the inhibition of growth at 0.033 µM [10]?
**A.** 2%

**Q.** What about the inhibition of growth at 0.003 µM [11] of the same molecule?
**A.** 13%

**Q.** And the inhibition of growth at 0.033 µM [12]?
**A.** -3%

**Q.** And the inhibition of growth at 0.33 µM [13]?
**A.** -1%

**Q.** What about the inhibition of growth at 0.17 µM [14] of the same molecule?
**A.** 111%

**Q.** What about the inhibition of growth at 0.003 µM [15] of the same molecule?
**A.** 2%

**Q.** And the inhibition of growth at 0.17 µM [16]?
**A.** -3%

**Q.** What about the inhibition of growth at 0.033 µM [17] of the same molecule?
**A.** 88%

**Q.** What about the inhibition of growth at 0.003 µM [18] of the same molecule?
**A.** 16%

**Q.** And the inhibition of growth at 3.3 µM [19]?
**A.** 113%

**Q.** And the inhibition of growth at 0.017 µM [20]?
**A.** 77%
